# Source: patent US12491170B2, “Stable treprostinil prodrugs” (United Therapeutics Corporation, priority 2020, dated 2025)
# Test: Stability in cryopreserved hepatocytes, rat
# Details: not given
SMILES,Trep Concentration (μM) 0 min,Trep Concentration (μM) 15 min,Trep Concentration (μM) 30 min,Trep Concentration (μM) 60 min,Trep Concentration (μM) 120 min
CCCCCC(CCC1C(O)CC2Cc3c(cccc3OCC(=O)O)CC21)Oc1ccccc1C(=O)O (stereo not drawn) [LVI],0 µM,0 µM,0 µM,0 µM,0 µM
CCCCCC(CCC1C(O)CC2Cc3c(cccc3OCC(=O)O)CC21)OC(=O)c1ccc(C(F)(F)F)cc1 (stereo not drawn) [LXII],0.00378 µM,0.0946 µM,0.156 µM,0.227 µM,0.264 µM
CCCCCC(CCC1C(O)CC2Cc3c(cccc3OCC(=O)O)CC21)OC(=O)C12CC3CC(CC(C3)C1)C2 (stereo not drawn) [LXIX],0 µM,0.0238 µM,0.0421 µM,0.0712 µM,0.119 µM
CCCCCC(CCC1C(O)CC2Cc3c(cccc3OCC(=O)O)CC21)OC(=O)c1ccccc1O (stereo not drawn) [LXI],0 µM,0 µM,0.00373 µM,0.00634 µM,0.00941 µM

# Same assay, conditions: rat
row,SMILES,AUC
1,CCCCCC(CCC1C(O)CC2Cc3c(cccc3OCC(=O)O)CC21)Oc1ccccc1C(=O)O (stereo not drawn) [LVI],0.00 µmol·min/L
2,CCCCCC(CCC1C(O)CC2Cc3c(cccc3OCC(=O)O)CC21)OC(=O)c1ccc(C(F)(F)F)cc1 (stereo not drawn) [LXII],23.09 µmol·min/L
3,CCCCCC(CCC1C(O)CC2Cc3c(cccc3OCC(=O)O)CC21)OC(=O)C12CC3CC(CC(C3)C1)C2 (stereo not drawn) [LXIX],8.08 µmol·min/L
4,CCCCCC(CCC1C(O)CC2Cc3c(cccc3OCC(=O)O)CC21)OC(=O)c1ccccc1O (stereo not drawn) [LXI],0.65 µmol·min/L

# Test: not given
# Details: rat
row,SMILES,AUC
1,CCCCCC(CCC1C(O)CC2Cc3c(cccc3OCC(=O)O)CC21)Oc1ccccc1C(=O)O (stereo not drawn) [LVI],0.00 µmol·min/L
2,CCCCCC(CCC1C(O)CC2Cc3c(cccc3OCC(=O)O)CC21)OC(=O)c1ccc(C(F)(F)F)cc1 (stereo not drawn) [LXII],7.47 µmol·min/L
3,CCCCCC(CCC1C(O)CC2Cc3c(cccc3OCC(=O)O)CC21)OC(=O)C12CC3CC(CC(C3)C1)C2 (stereo not drawn) [LXIX],2.65 µmol·min/L
4,CCCCCC(CCC1C(O)CC2Cc3c(cccc3OCC(=O)O)CC21)OC(=O)c1ccccc1O (stereo not drawn) [LXI],0.16 µmol·min/L

# Test: Stability in cryopreserved hepatocytes, human
# Details: not given
SMILES,Trep Concentration (μM) 0 min,Trep Concentration (μM) 15 min,Trep Concentration (μM) 30 min,Trep Concentration (μM) 60 min,Trep Concentration (μM) 120 min
CCCCCC(CCC1C(O)CC2Cc3c(cccc3OCC(=O)O)CC21)Oc1ccccc1C(=O)O (stereo not drawn) [LVI],0 µM,0 µM,0 µM,0 µM,0 µM
CCCCCC(CCC1C(O)CC2Cc3c(cccc3OCC(=O)O)CC21)OC(=O)c1ccc(C(F)(F)F)cc1 (stereo not drawn) [LXII],0 µM,0.0881 µM,0.14 µM,0.194 µM,0.222 µM
CCCCCC(CCC1C(O)CC2Cc3c(cccc3OCC(=O)O)CC21)OC(=O)C12CC3CC(CC(C3)C1)C2 (stereo not drawn) [LXIX],0 µM,0.198 µM,0.294 µM,0.338 µM,0.335 µM
CCCCCC(CCC1C(O)CC2Cc3c(cccc3OCC(=O)O)CC21)OC(=O)c1ccccc1O (stereo not drawn) [LXI],0 µM,0.0213 µM,0.0378 µM,0.0556 µM,0.0701 µM

# Same assay, conditions: human
row,SMILES,AUC
1,CCCCCC(CCC1C(O)CC2Cc3c(cccc3OCC(=O)O)CC21)Oc1ccccc1C(=O)O (stereo not drawn) [LVI],0.00 µmol·min/L
2,CCCCCC(CCC1C(O)CC2Cc3c(cccc3OCC(=O)O)CC21)OC(=O)c1ccc(C(F)(F)F)cc1 (stereo not drawn) [LXII],19.86 µmol·min/L
3,CCCCCC(CCC1C(O)CC2Cc3c(cccc3OCC(=O)O)CC21)OC(=O)C12CC3CC(CC(C3)C1)C2 (stereo not drawn) [LXIX],34.85 µmol·min/L
4,CCCCCC(CCC1C(O)CC2Cc3c(cccc3OCC(=O)O)CC21)OC(=O)c1ccccc1O (stereo not drawn) [LXI],5.78 µmol·min/L

# Test: Stability in liver microsomes, rat
# Details: not given
SMILES,Trep Concentration 0 min,Trep Concentration 10 min,Trep Concentration 20 min,Trep Concentration 30 min,Trep Concentration 60 min
CCCCCC(CCC1C(O)CC2Cc3c(cccc3OCC(=O)O)CC21)Oc1ccccc1C(=O)O (stereo not drawn) [LVI],0 µM,0 µM,0 µM,0 µM,0 µM
CCCCCC(CCC1C(O)CC2Cc3c(cccc3OCC(=O)O)CC21)OC(=O)c1ccc(C(F)(F)F)cc1 (stereo not drawn) [LXII],0.0741 µM,0.0998 µM,0.124 µM,0.139 µM,0.139 µM
CCCCCC(CCC1C(O)CC2Cc3c(cccc3OCC(=O)O)CC21)OC(=O)C12CC3CC(CC(C3)C1)C2 (stereo not drawn) [LXIX],0.0251 µM,0.0344 µM,0.0421 µM,0.0483 µM,0.0527 µM
CCCCCC(CCC1C(O)CC2Cc3c(cccc3OCC(=O)O)CC21)OC(=O)c1ccccc1O (stereo not drawn) [LXI],0 µM,0 µM,0.00316 µM,0.00337 µM,0.00402 µM

# Test: Stability in liver microsomes, human
# Details: not given
SMILES,Trep Concentration 0 min,Trep Concentration 10 min,Trep Concentration 20 min,Trep Concentration 30 min,Trep Concentration 60 min
CCCCCC(CCC1C(O)CC2Cc3c(cccc3OCC(=O)O)CC21)Oc1ccccc1C(=O)O (stereo not drawn) [LVI],0 µM,0 µM,0 µM,0 µM,0 µM
CCCCCC(CCC1C(O)CC2Cc3c(cccc3OCC(=O)O)CC21)OC(=O)c1ccc(C(F)(F)F)cc1 (stereo not drawn) [LXII],0.0917 µM,0.141 µM,0.174 µM,0.2 µM,0.206 µM
CCCCCC(CCC1C(O)CC2Cc3c(cccc3OCC(=O)O)CC21)OC(=O)C12CC3CC(CC(C3)C1)C2 (stereo not drawn) [LXIX],0.321 µM,0.365 µM,0.367 µM,0.36 µM,0.252 µM
CCCCCC(CCC1C(O)CC2Cc3c(cccc3OCC(=O)O)CC21)OC(=O)c1ccccc1O (stereo not drawn) [LXI],0.0209 µM,0.0312 µM,0.0361 µM,0.0389 µM,0.0332 µM

# Same assay, conditions: human
row,SMILES,AUC
1,CCCCCC(CCC1C(O)CC2Cc3c(cccc3OCC(=O)O)CC21)Oc1ccccc1C(=O)O (stereo not drawn) [LVI],0.00 µmol·min/L
2,CCCCCC(CCC1C(O)CC2Cc3c(cccc3OCC(=O)O)CC21)OC(=O)c1ccc(C(F)(F)F)cc1 (stereo not drawn) [LXII],10.70 µmol·min/L
3,CCCCCC(CCC1C(O)CC2Cc3c(cccc3OCC(=O)O)CC21)OC(=O)C12CC3CC(CC(C3)C1)C2 (stereo not drawn) [LXIX],19.91 µmol·min/L
4,CCCCCC(CCC1C(O)CC2Cc3c(cccc3OCC(=O)O)CC21)OC(=O)c1ccccc1O (stereo not drawn) [LXI],2.05 µmol·min/L

# Test: not given
# Details: dog
row,SMILES,AUC
1,CCCCCC(CCC1C(O)CC2Cc3c(cccc3OCC(=O)O)CC21)Oc1ccccc1C(=O)O (stereo not drawn) [LVI],0.00 µmol·min/L
2,CCCCCC(CCC1C(O)CC2Cc3c(cccc3OCC(=O)O)CC21)OC(=O)c1ccc(C(F)(F)F)cc1 (stereo not drawn) [LXII],16.64 µmol·min/L
3,CCCCCC(CCC1C(O)CC2Cc3c(cccc3OCC(=O)O)CC21)OC(=O)C12CC3CC(CC(C3)C1)C2 (stereo not drawn) [LXIX],38.15 µmol·min/L
4,CCCCCC(CCC1C(O)CC2Cc3c(cccc3OCC(=O)O)CC21)OC(=O)c1ccccc1O (stereo not drawn) [LXI],1.09 µmol·min/L

# Test: Stability in cryopreserved hepatocytes, dog
# Details: not given
SMILES,Trep Concentration (μM) 0 min,Trep Concentration (μM) 15 min,Trep Concentration (μM) 30 min,Trep Concentration (μM) 60 min,Trep Concentration (μM) 120 min
CCCCCC(CCC1C(O)CC2Cc3c(cccc3OCC(=O)O)CC21)Oc1ccccc1C(=O)O (stereo not drawn) [LVI],0 µM,0.005 µM,0.005 µM,0.003 µM,0 µM
CCCCCC(CCC1C(O)CC2Cc3c(cccc3OCC(=O)O)CC21)OC(=O)c1ccc(C(F)(F)F)cc1 (stereo not drawn) [LXII],0 µM,0.0486 µM,0.0833 µM,0.128 µM,0.166 µM
CCCCCC(CCC1C(O)CC2Cc3c(cccc3OCC(=O)O)CC21)OC(=O)C12CC3CC(CC(C3)C1)C2 (stereo not drawn) [LXIX],0.00877 µM,0.227 µM,0.262 µM,0.263 µM,0.236 µM
CCCCCC(CCC1C(O)CC2Cc3c(cccc3OCC(=O)O)CC21)OC(=O)c1ccccc1O (stereo not drawn) [LXI],0 µM,0 µM,0.00299 µM,0.00396 µM,0.00663 µM

# Same assay, conditions: dog
row,SMILES,AUC
1,CCCCCC(CCC1C(O)CC2Cc3c(cccc3OCC(=O)O)CC21)Oc1ccccc1C(=O)O (stereo not drawn) [LVI],0.00 µmol·min/L
2,CCCCCC(CCC1C(O)CC2Cc3c(cccc3OCC(=O)O)CC21)OC(=O)c1ccc(C(F)(F)F)cc1 (stereo not drawn) [LXII],13.34 µmol·min/L
3,CCCCCC(CCC1C(O)CC2Cc3c(cccc3OCC(=O)O)CC21)OC(=O)C12CC3CC(CC(C3)C1)C2 (stereo not drawn) [LXIX],28.28 µmol·min/L
4,CCCCCC(CCC1C(O)CC2Cc3c(cccc3OCC(=O)O)CC21)OC(=O)c1ccccc1O (stereo not drawn) [LXI],0.44 µmol·min/L

# Test: Stability in liver microsomes, dog
# Details: not given
SMILES,Trep Concentration 0 min,Trep Concentration 10 min,Trep Concentration 20 min,Trep Concentration 30 min,Trep Concentration 60 min
CCCCCC(CCC1C(O)CC2Cc3c(cccc3OCC(=O)O)CC21)Oc1ccccc1C(=O)O (stereo not drawn) [LVI],0 µM,0 µM,0.003 µM,0 µM,0 µM
CCCCCC(CCC1C(O)CC2Cc3c(cccc3OCC(=O)O)CC21)OC(=O)c1ccc(C(F)(F)F)cc1 (stereo not drawn) [LXII],0.127 µM,0.188 µM,0.254 µM,0.3 µM,0.372 µM
CCCCCC(CCC1C(O)CC2Cc3c(cccc3OCC(=O)O)CC21)OC(=O)C12CC3CC(CC(C3)C1)C2 (stereo not drawn) [LXIX],0.517 µM,0.57 µM,0.609 µM,0.696 µM,0.657 µM
CCCCCC(CCC1C(O)CC2Cc3c(cccc3OCC(=O)O)CC21)OC(=O)c1ccccc1O (stereo not drawn) [LXI],0.00725 µM,0.0115 µM,0.0157 µM,0.0196 µM,0.0259 µM
